{"source": "patent US20150290192A1", "about": "“INHIBITORS OF BRUTON'S TYROSINE KINASE” (HOFFMANN-LA ROCHE INC., priority 2012, published 2015)", "key": {"Bruton's Tyrosine Kinase": {"target": "Bruton's Tyrosine Kinase (Homo sapiens, UniProt Q06187)", "sequence (Q06187 whole entry)": "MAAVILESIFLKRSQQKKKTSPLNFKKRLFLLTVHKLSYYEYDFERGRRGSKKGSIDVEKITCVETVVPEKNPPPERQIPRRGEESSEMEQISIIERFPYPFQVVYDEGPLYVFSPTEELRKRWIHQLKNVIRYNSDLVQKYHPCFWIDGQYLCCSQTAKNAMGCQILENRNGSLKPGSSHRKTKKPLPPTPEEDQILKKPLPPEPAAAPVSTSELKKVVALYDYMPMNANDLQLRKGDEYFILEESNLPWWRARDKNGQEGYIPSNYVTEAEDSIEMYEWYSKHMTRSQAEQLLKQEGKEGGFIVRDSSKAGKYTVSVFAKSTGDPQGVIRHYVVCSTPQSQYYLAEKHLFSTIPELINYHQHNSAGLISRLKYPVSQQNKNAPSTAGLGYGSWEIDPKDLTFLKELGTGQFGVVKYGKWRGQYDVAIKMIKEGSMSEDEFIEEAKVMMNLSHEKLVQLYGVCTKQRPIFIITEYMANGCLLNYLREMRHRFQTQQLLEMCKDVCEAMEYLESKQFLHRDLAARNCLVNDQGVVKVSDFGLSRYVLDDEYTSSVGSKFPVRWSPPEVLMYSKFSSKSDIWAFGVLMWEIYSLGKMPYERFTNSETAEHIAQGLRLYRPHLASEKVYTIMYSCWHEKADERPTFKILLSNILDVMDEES", "test": "Bruton's Tyrosine Kinase (BTK) inhibition TR-FRET competition assay", "format": "binding", "protocol": "This BTK competition assay measures compound potency (IC50) for the inactivated state of Bruton's Tyrosine Kinase using FRET (Firster/Fluorescence Resonance Energy Transfer) technology. The BTK-Eu complex was incubated on ice one hour prior to use at a starting concentration of 50 nM BTK-Bioease™: 10 nM Eu-streptavidin (Perkin-Elmer Catalog#AD0062). The assay buffer consisted of 20 mM HEPES (pH 7.15), 0.1 mM DTT, 10 mM MgCl2, 0.5 mg/ml BSA with 3% Kinase Stabilizer (Fremont Biosolutions, Catalog #STB-K02). After 1 h, the reaction mixture from above was diluted 10 fold in assay buffer to make 5 nM BTK: InM Eu-Streptavidin complex (donor fluorophore). 18 l of a mixture of 0.11 nM BTK-Eu and 0.11 nM Kinase Tracer 178 (Invitrogen, Catalog #PV5593,) with BTK-Eu alone as no negative control, was then dispensed into 384-well flat bottom plates (Greiner, 784076). Compounds to be tested in assay were prepared as 10× concentrations and serial dilution in half-log increments was performed in DMSO so as to generate 10 point curves. To initiate the FRET reaction, compounds prepared as 10× stock in DMSO was added to the plates and the plates were incubated 18-24 h at 14° C.\nAfter the incubation the plates were read on a BMG Pherastar Fluorescent plate reader (or equivalent) and used to measure the emission energy from the europium donor fluorophore (620 nm emission) and the FRET (665 nm emission). The negative control well values were averaged to obtain the mean minimum. The positive “no inhibitor” control wells were averaged to obtain the mean maximum. Percent of maximal FRET was calculated using following equation:\n% max FRET=100×[(FSRcmpd−FSRmean min)/(FSRmean max−FSRmean min)]\nwhere FSR=FRET Signal ratio. % Max FRET curves were plotted in Activity Base (Excel) and the IC50(%), hill slope, z′ and % CV were determined. The mean IC50 and standard deviation will be derived from duplicate curves (singlet inhibition curves from two independent dilutions) using Microsoft Excel."}, "[1]": {"test_system": "human B cells (BCR activation)", "test": "Human B cell antibody production after BCR activation", "format": "cell-based", "conditions": "for IC50: Homo sapiens, B-cell, N = 3 donors", "protocol": "Human total B cells were enriched with RosetteSep human B cell enrichment cocktail (#28921, Vancouver, BC) from buffy coat leukocyte packs (New York Blood Center) following manufacturer's protocol. Enriched B cell purity (around 80%) was checked by FACS with CD19+ staining. B cells were suspended (0.1 million cells/well/100 μl) in RPMI-1640 based conditional medium (50 ng/ml IL-2, 50 ng/ml IL-10, and […] anti-IgD for the activation of B cells to produce IgG/IgM; 10 ng/ml IL-4, 10 ng/ml IL-10, 25 ng/ml IL-21, and […] anti-CD40 for the activation of B cells to produce IgE) together with Compound 1 (1 nM-10 μM). Cells were cultured for 10 days (for IgG/IgM production) or 14 days (for IgE production) at 37° C. Culture supernatants were collected for IgM, IgG, and IgE analysis following Bethyl Laboratory's protocol (#E80-104, #E80-100, #E80-108, Montgomery, Tex.)."}, "[2]": {"test_system": "mice, poly I:C-induced airway neutrophilia", "test": "Poly I:C induced steroid-resistant airway inflammation (neutrophilia)", "format": "in vivo, mouse", "conditions": "for % reduction in airway neutrophilia: Inhaled", "protocol": "Compound 1's effects on airway inflammation induced by a synthetic form of double-stranded RNA, polyinosine-polycytidylic acid (Poly I:C) were assessed. […] To perform this experiment, mice (male; BALB/c; 7-9 weeks of age) were anesthetized with isoflurane and intranasally (i.n.) administered saline or poly I:C ([…]) and airway inflammation was evaluated 24 hours later as previously described [Harris et al., 2012, Mucosal Immunology]. Compound 1 inhibited poly I:C-induced airway neutrophilia in a dose-dependent (Table 6). These reductions in neutrophils were consistent with reductions in the levels of neutrophil chemoattractants in the lavage fluid (Table 4)."}, "[3]": {"test": "Pharmacokinetics in cynomolgus monkey", "format": "in vivo", "conditions": "Cyno"}, "[4]": {"test": "Micronization: particle size and polymorphic form", "format": "physicochemical", "protocol": "10.6 g of compound 1 was micronized in a Jet-O-Mizer jet mill at feed and grinding pressures of 90 psi. The micronized material thus obtained was analyzed by powder X-ray diffraction pattern and particle size distribution as shown in FIGS. 1 and 2 respectively. No change in polymorphic form was observed during the micronization process. Eighty percent of the particles were of size 5 μm or less with a mean particle size (d50%=2.88 μm) in the range suitable for inhalation delivery. The material was used for the in vivo experiment mOVA36.\n8.6 g of 2-(6-tert-butyl-8-fluoro-1-oxophthalazin-2(1H)-yl)-4-(1-methyl-5-(5-(1-methylpiperidin-4-yl)pyridin-2-ylamino)-6-oxo-1,6-dihydropyridazin-3-yl)nicotinaldehyde was micronized in a Jet-O-Mizer jet mill at 80 psi. The mean particle size (d50%) was 3.05 μm with 90% particles ≦6 μm (FIG. 3). This material (30% w/w) and lactose (Lactohale LH 300, 70% w/w) were mixed in a Turbula mixer at 22 rpm for 15 minutes. The d50% and d90% particle size of the lactose ingredient were <5 μm and <10 μm, respectively (DFE Pharma specifications (#001/October 2011). The blend thus obtained was used for the in vivo experiment mOVA40, mPolylC-3-12 and mPolylC-5-12. See FIG. 3."}, "Btk kinase": {"target": "Btk kinase (Homo sapiens, UniProt Q06187)", "sequence (Q06187 whole entry)": "as above", "test": "Btk Biacore binding assay", "method": "Analyses were performed on a Biacore T-100. Btk kinase was avi-tagged and co-expressed in baculovirus with biotin ligase to generate single site biotinylated Btk (Avidity, LLC). Biotinylated target was captured on Biacore streptavidin sensor chips (Series S Sensor Chip SA) at densities of ˜10000 resonance units (1 ru˜1 pg protein/mm2). […] Compounds were injected for 100 seconds association time and dissociation was followed for 20 min."}, "[5]": {"test_system": "OVA sensitized and challenged mice, allergen-induced bronchoconstriction", "test": "Ovalbumin-induced allergic airway disease: allergen-induced bronchoconstriction"}}, "note": "Read-outs that look alike come from different tables or passages of the source. Marks after values point to notes of the source that are not given here."}
{"smiles": "CN1CCC(c2ccc(Nc3cc(-c4ccnc(-n5ncc6cc(C(C)(C)C)cc(F)c6c5=O)c4CO)nn(C)c3=O)nc2)CC1", "note": "[Compound 1, 6-tert-Butyl-8-fluoro-2-{3-hydroxymethyl-4-[1-methyl-5-(1′-methyl-1′,2′,3′,4′,5′,6′-hexahydro-[3,4′]bipyridinyl-6-ylamino)-6-oxo-1,6-dihydro-pyridazin-3-yl]-pyridin-2-yl}-2H-phthalazin-1-one]", "values": [{"measurement": "Btk inhibitor potency (FRET)", "setting": "Bruton's Tyrosine Kinase", "result": "very potent"}, {"measurement": "IC50", "setting": "Bruton's Tyrosine Kinase; inactivated state of BTK, 18-24 h at 14° C.", "result": 0.4, "unit": "nM"}, {"measurement": "IC50", "setting": "[1]; 240 h, 10 days culture, read-out: IC50 IgG production", "result": 4.15, "unit": "nM"}, {"measurement": "IC50", "setting": "[1]; 240 h, 10 days culture, read-out: IC50 IgM production", "result": 1.21, "unit": "nM"}, {"measurement": "IC50", "setting": "[1]; 336 h, 14 days culture, read-out: IC50 IgE production", "result": 1.47, "unit": "nM"}, {"measurement": "reduction of levels of IgM, IgG, and IgE in the supernatant, efficacy", "setting": "[1]; concentration dependent", "result": "up to 100%"}, {"measurement": "% reduction in airway neutrophilia", "setting": "[2]; delivered dose 0.09 mg/kg, deposited dose .003 mg/kg, mPolyIC-3-12", "result": 17, "unit": "%"}, {"measurement": "% reduction in airway neutrophilia", "setting": "[2]; delivered dose 0.27 mg/kg, deposited dose .010 mg/kg, mPolyIC-3-12", "result": 22, "unit": "%"}, {"measurement": "% reduction in airway neutrophilia", "setting": "[2]; delivered dose 0.81 mg/kg, deposited dose .030 mg/kg, mPolyIC-3-12", "result": "67* %"}, {"measurement": "% reduction in airway neutrophilia", "setting": "[2]; delivered dose 8.6 mg/kg, deposited dose 0.3 mg/kg, mPolyIC-5-12", "result": "83* %"}, {"measurement": "poly I:C-induced airway neutrophilia", "setting": "[2]; dose-dependent", "result": "inhibited"}, {"measurement": "levels of neutrophil chemoattractants in the lavage fluid", "setting": "[2]; mouse, in vivo", "result": "reductions"}, {"measurement": "CL", "setting": "[3]; 0.3 mg/kg (iv)", "result": "high"}, {"measurement": "Oral Bioavailability", "setting": "[3]; 0.3 (iv), 0.9 (po) mg/kg", "result": "low"}, {"measurement": "bioavailability", "setting": "[3]; cynomolgus monkey, plasma, 0.9 mg/kg, 0.3 (iv), 0.9 (po) mg/kg", "result": 8, "unit": "%"}, {"measurement": "clearance", "setting": "[3]; cynomolgus monkey, plasma, 0.3 mg/kg (iv)", "result": 38.9, "unit": "mL/min/kg"}, {"measurement": "particle size of 90% particles", "setting": "[4]; micronized at 80 psi, material for mOVA40 and mPolyIC", "result": "≤ 6", "unit": "μm"}, {"measurement": "particles of size 5 μm or less", "setting": "[4]; micronized at 90 psi, material for mOVA36", "result": "Eighty"}, {"measurement": "mean particle size (d50%)", "setting": "[4]; micronized in Jet-O-Mizer jet mill at 80 psi, material for mOVA40 and mPolyIC", "result": 3.05, "unit": "μm"}, {"measurement": "mean particle size (d50%)", "setting": "[4]; micronized in Jet-O-Mizer jet mill at 90 psi, material for mOVA36", "result": 2.88, "unit": "μm"}, {"measurement": "change in polymorphic form during the micronization process", "setting": "[4]; powder X-ray diffraction before and after micronization", "result": "No change"}, {"measurement": "Kd", "setting": "Btk kinase", "result": 0.408, "unit": "nM"}, {"measurement": "off rate", "setting": "Btk kinase; Biacore", "result": "very slow"}, {"measurement": "kon", "setting": "Btk kinase; read-out: Biacore Ka", "result": 886000, "unit": "M⁻¹ s⁻¹"}, {"measurement": "% reduction in airway resistance (R)", "setting": "[5]; Inhaled, delivered dose 1.0 mg/kg, deposited dose 0.03 mg/kg, mOVA36", "result": 44, "unit": "%"}, {"measurement": "% reduction in airway resistance (R)", "setting": "[5]; Inhaled, delivered dose 2.7 mg/kg, deposited dose 0.1 mg/kg, mOVA36", "result": "59* %"}, {"measurement": "% reduction in airway resistance (R)", "setting": "[5]; Inhaled, delivered dose 8.6 mg/kg, deposited dose 0.3 mg/kg, mOVA36", "result": "86* %"}, {"measurement": "% reduction in airway resistance (R)", "setting": "[5]; Intranasal, delivered dose 0.3 mg/kg, deposited dose 0.3 mg/kg", "result": "85* %"}, {"measurement": "OVA-induced increase in R", "setting": "[5]; administered i.n. or delivered as a dry powder formulation by inhalation", "result": "effectively inhibited"}]}
